Legend:
[1] = test system: vascular intimal thickening after aorta transplantation; conditions: rat; 3 mg/mL in drinking water (Non-patent literature 2); cited from earlier work
Vanin-1 [2] = experiment: In vivo measurement of Vanin-1 inhibitory activity in sera and kidney tissues using hamsters; design: species or system Syrian hamsters; conditions: hamster, 10 mg/kg subcutaneous injection; for Vanin-1 activity in kidney tissue extracts 1 hour after administration / Vanin-1 activity in kidney tissue extracts 4 hours after administration: kidney tissue extract; for Vanin-1 activity in kidney tissue extracts 1 hour after administration: 1 hour (FIG. 5b); for Vanin-1 activity in kidney tissue extracts 4 hours after administration: 4 hours (FIG. 5b); for Vanin-1 activity in sera 1 hour after administration / Vanin-1 activity in sera 4 hours after administration: serum; for Vanin-1 activity in sera 1 hour after administration: 1 hour (FIG. 5a); for Vanin-1 activity in sera 4 hours after administration: 4 hours (FIG. 5a)
Method: The pantotheine ketone derivatives obtained in Example 1 and Comparative Example 1 were used as a Vanin-1 inhibitor to measure Vanin-1 inhibitory activity in vivo as follows.
An assay buffer and substrate were the same as those used in the in vitro measurement of activity described above. Hamsters used were 6-week-old male Syrian hamsters purchased from Japan SLC.
The pantotheine ketone derivatives of Example 1 and Comparative Example 1 at a dose of 10 mg/kg were each administered by subcutaneous injection in the backs of different hamsters, and 1 hour and 4 hours after the administration, blood collection and kidney removal were performed under anesthesia. The blood and kidney of the normal hamsters were indicated as Normal. The blood was refrigerated overnight at 4° C. and then centrifuged at 3000 rpm for 20 minutes at 4° C., and the supernatant was used as serum. The kidney was homogenized in an assay buffer in an amount 10 times the tissue weight, and centrifuged at 8000 rpm for 30 minutes at 4° C., and the supernatant was used as a kidney tissue extract. Proteins in the kidney tissue were quantified by using a BCA protein assay (Thermo Fishers Scientific).
Vanin-1 inhibitory activity was measured in accordance with the following steps 1 to 7 of: • 1. introducing 80 μL of assay buffer in a 96-well black plate, • 2. adding 10 μL of serum or kidney tissue extract to the wells containing the assay buffer, • 3. adding 10 μL of 1 mM Pantothenate-AMC to the wells from the step [2.], • 4. measuring at Ex=390 nm and Ex=465 nm before incubation, • 5. incubating at 37° C. for 30 minutes, • 6. measuring at Ex=390 nm and Ex=465 nm, • 7. subtracting fluorescence after 0 minute incubation, from fluorescence value after 30 minutes incubation, and calculating enzyme unit (U) using as an index the amount of AMC produced per minute with respect to the fluorescence value of 40 μM AMC as a reference. The Vanin-1 activity in the kidney tissue extracts was further calculated to normalize by the protein concentration. (Results)

Vanin-1 [3] = target: T1, Vanin-1 (Homo sapiens, UniProt O95497); experiment: In vitro measurement of Vanin-1 inhibitory activity, screening using human serum with Pantothenate-AMC substrate; assay type: biochemical; conditions: for IC50: 37° C., 30 minutes incubation, Pantothenate-AMC; for Vanin-1 inhibitory activity relative to that of Comparative Example 1: ratio to Comparative Example 1
T1 construct: For use as human serum, “normal human serum” was purchased from KOHJIN BIO (product number: 12181211); tissue KOHJIN BIO 12181211; host or cells: normal human serum
T1 sequence (O95497 22-491): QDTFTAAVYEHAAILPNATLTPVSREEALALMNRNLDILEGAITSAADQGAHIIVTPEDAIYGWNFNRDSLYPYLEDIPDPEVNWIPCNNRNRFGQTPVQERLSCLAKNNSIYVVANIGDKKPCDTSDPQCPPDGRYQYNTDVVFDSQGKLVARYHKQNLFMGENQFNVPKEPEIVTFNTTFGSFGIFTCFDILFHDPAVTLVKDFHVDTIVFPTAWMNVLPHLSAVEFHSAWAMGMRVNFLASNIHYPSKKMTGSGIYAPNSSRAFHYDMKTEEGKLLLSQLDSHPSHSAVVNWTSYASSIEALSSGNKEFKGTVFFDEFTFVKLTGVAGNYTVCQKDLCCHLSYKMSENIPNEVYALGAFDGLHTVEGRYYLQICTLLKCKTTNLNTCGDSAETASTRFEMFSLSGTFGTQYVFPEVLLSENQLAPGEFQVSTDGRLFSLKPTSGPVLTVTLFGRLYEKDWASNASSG
Method: The pantotheine ketone derivatives obtained in Examples 1 to 5 and Comparative Examples 1 to 9 were used as a Vanin-1 inhibitor to measure Vanin-1 inhibitory activity in vitro as follows.
A 9 g/package phosphate buffer powder (1/15 molL^−1=66 mM, Wako Pure Chemical) was dissolved in 1 L of distilled water to produce an assay buffer. Pantothenate-AMC serving as a substrate was synthesized according to protocols as described in Analytical Biochemistry 2010; 399: 284-292. For use as human serum, “normal human serum” was purchased from KOHJIN BIO (product number: 12181211).
Vanin-1 inhibitory activity was measured in accordance with the following steps 1 to 8 of: • 1. introducing 79 μL of assay buffer in a 96-well black plate, • 2. adding 10 μL of human serum to the wells containing the assay buffer, • 3. adding 1 μL of each Vanin-1 inhibitor (10^−7 M to 10^−2 M in DMSO) or 1 μL of DMSO to the wells from the step [2.], • 4. adding 10 μL of 1 mM Pantothenate-AMC to the wells from the step [3.], • 5. measuring at Ex=390 nm and Ex=465 nm before incubation, • 6. incubating at 37° C. for 30 minutes, • 7. measuring at Ex=390 nm and Ex=465 nm, • 8. subtracting fluorescence after 0 minute incubation, from fluorescence after 30 minutes incubation, to express Vanin-1 inhibitory activity of each inhibitor in percent with respect to that of DMSO being 100%. (Results)

SMILES | Effect on vascular intimal thickening after aorta transplantation [1] | Vanin-1 activity in kidney tissue extracts 1 hour after administration (Vanin-1 [2]) | Vanin-1 activity in kidney tissue extracts 4 hours after administration (Vanin-1 [2]) | Vanin-1 activity in sera 1 hour after administration (Vanin-1 [2]) | Vanin-1 activity in sera 4 hours after administration (Vanin-1 [2]) | IC50 (Vanin-1 [3]) [nM] | Vanin-1 inhibitory activity in vitro (comparison in words, FIGS. 1 to 4) (Vanin-1 [3]) | Vanin-1 inhibitory activity relative to that of Comparative Example 1 (Vanin-1 [3])
CC(C)(CO)[C@@H](O)C(=O)NCCC(=O)Cc1ccccc1 [Comparative Example 1, reference compound] | suppressive effect on vascular intimal thickening | same as the normal value | same as the normal value | suppressed | returned to normal value | 780 |  | 
CC(C)(CO)[C@@H](O)C(=O)NCCC(=O)Cc1ccc2ccccc2c1 [Comparative Example 6] |  |  |  |  |  |  | lower than that of Comparative Example 1 | 
CC(C)(CO)[C@@H](O)C(=O)NCCC(=O)Cc1cccc2ccccc12 [Comparative Example 7] |  |  |  |  |  |  | lower than that of Comparative Example 1 | 
C/C(O)=C/C(=O)CCNC(=O)[C@H](O)C(C)(C)CO [Comparative Example 8] |  |  |  |  |  |  | lower than that of Comparative Example 1 | 
C=C=CC(=O)CCNC(=O)[C@H](O)C(C)(C)CO [Comparative Example 9] |  |  |  |  |  |  | lower than that of Comparative Example 1 | 
CC(C)(CO)[C@@H](O)C(=O)NCCC(=O)Cc1ccc(OC(F)(F)F)cc1 [Example 1, (R)-2,4-dihydroxy-3,3-dimethyl-N-[3-oxo-4-(4-trifluoromethoxyphenyl)butyl]butanamide] |  | able to inhibit Vanin-1 | returned to the normal value | suppressed Vanin-1 activity lower than that of Comparative Example 1 | suppressed below the normal value | 35 | very high Vanin-1 inhibitory activity | about 20 times
CC(C)(CO)[C@@H](O)C(=O)NCCC(=O)Cc1ccc(F)cc1 [Example 2] |  |  |  |  |  | 120 | very high Vanin-1 inhibitory activity | about 6 times

— patent US12128016B2, “Vanin-1 inhibitor” (EDUCATIONAL FOUNDATION OF OSAKA MEDICAL AND PHARMACEUTICAL …, priority 2021, dated 2024)
